Reference: patent US9630941B2 (priority 2008, dated 2017)

What was measured:
[1] = Chemical stability pH dependent at 25° C.; assay type: physicochemical
Method: B. Chemical Stability pH Dependent at 25° C.

[2] = Porcine buccal tissue homogenate stability; assay type: in vitro ADME; conditions: protein concentration 2 mg/ml
Method: (§1) b. Porcine Buccal Tissue Homogenate Stability
(§2) Protein Concentration 2 mg/ml

[3] = Aqueous solubility, pH dependent; assay type: physicochemical
[4] = Thermal stability, 120° C. for 10 min; assay type: physicochemical
Method: C. Thermal Stability—120° C. for 10 min.

[5] = Control (IPBS) stability for the buccal homogenate study; assay type: physicochemical
Method: as §1, §2

[6] = Bioreversion: plasma stability, porcine plasma; assay type: in vitro ADME
[7] = Bioreversion: plasma stability, rabbit plasma; assay type: in vitro ADME

CCCCCc1cc(OC(=O)C(N)C(C)C)c2c(c1)OC(C)(C)C1CCC(C)=CC21 (centres unmarked) [THC-Valinate (6), Δ^9-THC-valinate]
First order rate constant ([1]; Buffer pH 5.0, 25° C.): 4.06 ± 0.01 ×10^−3 h^−1 | First order rate constant ([1]; Buffer pH 7.0, 25° C.): 47.13 ± 1.16 ×10^−3 h^−1 | First order rate constant ([1]; Buffer pH 9.0, 25° C.): 67.64 ± 7.67 ×10^−3 h^−1 | First order rate constant ([1]; Water, 25° C.): 23.70 ± 0.77 ×10^−3 h^−1 | K [2]: 16 ± 0.19 ×10^−3 min^−1 | T1/2 [2]: 43.30 ± 0.51 min | Aqueous Solubility ([3]; H20): 0.05 µg/mL | Aqueous Solubility ([3]; pH 1.2): 32.16 ± 0.27 µg/mL | Aqueous Solubility ([3]; pH 1.2, listed as THC-Valine): 78.23 ± 0.66 µM | Aqueous Solubility ([3]; pH 2): 53.66 ± 10.30 µg/mL | Aqueous Solubility ([3]; pH 2, listed as THC-Valine): 147.35 ± 24.90 µM | Aqueous Solubility ([3]; pH 3): 28.76 ± 0.14 µg/mL | Aqueous Solubility ([3]; pH 3, listed as THC-Valine): 69.78 ± 0.33 µM | Aqueous Solubility ([3]; pH 4): 10.34 ± 0.53 µg/mL | Aqueous Solubility ([3]; pH 4, listed as THC-Valine): 24.10 ± 1.28 µM | Aqueous Solubility ([3]; pH 5): 1.27 ± 0.25 µg/mL | Aqueous Solubility ([3]; pH 5, listed as THC-Valine): 3.51 ± 0.62 µM | Aqueous Solubility ([3]; pH 6): 0.07 ± 0.00 µg/mL | Aqueous Solubility ([3]; pH 6, listed as THC-Valine): 0.17 ± 0.00 µM | Drug loading (%) [4]: 104.67 ± 2.22% | CBN content of the sample after heating ([4]; 120° C. for 10 min): 8.79 ± 2.43 µg | Drug remaining ([4]; 120° C. for 10 min): 1440.57 ± 46.34 µg | THC content of the sample after heating ([4]; 120° C. for 10 min): 74.35 ± 5.26 µg | Drug remaining (%) ([4]; 120° C. for 10 min, % of initial): (91.80 ± 4.90) % | CBN content of the sample, initial ([4]; before heating): 8.27 ± 1.68 µg | Initial, μg (drug itself) ([4]; before heating): 1570.09 ± 33.27 µg | THC content of the sample, initial ([4]; before heating): 61.91 ± 9.49 µg | K [5]: 3.66 ± 0.68 ×10^−3 min^−1 | K [6]: 91.16 ± 10.91 ×10^−2 min^−1 | T1/2 [6]: 0.766 ± 0.092 min | K [7]: 61.94 ± 6.01 ×10^−2 min^−1 | T1/2 [7]: 1.124 ± 0.109 min
